The NIST ThermoML archive (doi:10.1021/je800589e)

Assay: xn = mol fraction of the nth substance listed
Conditions: Ring tensiometer

O [water] + CCN1CCCC1=O
x2 = 0
Conditions | surface tension liquid-gas [mN/m]
293.15 K | 72.65
298.15 K | 72.05
303.15 K | 71.21
313.15 K | 69.52
323.15 K | 67.92

CN1CCCC1=O [N-methylpyrrolidone] + O
surface tension liquid-gas [mN/m]
Conditions | 293.15 K | 298.15 K | 303.15 K | 313.15 K | 323.15 K
x1 = 0.0002 | 63.96 | 61.5 | 59.25 | 57 | 55
x1 = 0.0004 | 58.14 | 56.58 | 55.68 | 53.77 | 52.41
x1 = 0.0006 | 55.21 | 54.22 | 53.41 | 52.05 | 50.87
x1 = 0.001 | 53.5 | 52.86 | 52.23 | 51.05 | 50.14
x1 = 0.005 | 52.4 | 51.68 | 50.87 | 49.69 | 48.78
x1 = 0.01 | 51.6 | 50.78 | 50 | 48.87 | 48.05
x1 = 0.03 | 50.2 | 49.41 | 48.53 | 47.17 | 45.56
x1 = 0.1 | 49 | 48.29 | 47.49 | 46.34 | 44.6
x1 = 0.2 | 48.05 | 47.49 | 46.61 | 45.5 | 43.7
x1 = 0.4 | 46.05 | 45.42 | 44.94 | 44 | 42.4
x1 = 0.5 | 45.26 | 44.62 | 44 | 43.12 | 41.81
x1 = 0.6 | 44.46 | 43.82 | 43.1 | 42.3 | 41.18
x1 = 0.7 | 43.66 | 43 | 42.38 | 41.5 | 40.46
x1 = 0.8 | 42.78 | 42.14 | 41.66 | 40.78 | 39.74
x1 = 0.9 | 41.98 | 41.34 | 40.94 | 40.14 | 39.27
x1 = 1 | 41.26 | 40.8 | 40.38 | 39.64 | 38.68

O [water] + O=C1CCCN1
x2 = 0
Conditions | surface tension liquid-gas [mN/m]
293.15 K | 72.65
298.15 K | 72.05
303.15 K | 71.21
313.15 K | 69.52
323.15 K | 67.92

CCN1CCCC1=O [1-ethyl-2-pyrrolidinone] + O
surface tension liquid-gas [mN/m]
Conditions | 293.15 K | 298.15 K | 303.15 K | 313.15 K | 323.15 K
x1 = 0.0002 | 65.16 | 62.84 | 60.76 | 58.13 | 53.44
x1 = 0.0005 | 59.61 | 57.85 | 55.95 | 53.14 | 50.14
x1 = 0.001 | 56.3 | 54.77 | 53.23 | 51 | 49
x1 = 0.01 | 48.62 | 47.51 | 46.59 | 45.11 | 43.84
x1 = 0.02 | 44.12 | 43.28 | 42.53 | 41.4 | 40.2
x1 = 0.05 | 43.48 | 42.53 | 41.79 | 40.32 | 39.26
x1 = 0.1 | 42.11 | 41.22 | 40.42 | 39.3 | 38.32
x1 = 0.2 | 40.9 | 40.09 | 39.35 | 38.43 | 37.22
x1 = 0.3 | 40.28 | 39.44 | 38.52 | 37.59 | 36.48
x1 = 0.4 | 39.63 | 38.73 | 37.87 | 36.87 | 35.72
x1 = 0.5 | 39.25 | 38.23 | 37.31 | 36.2 | 35.26
x1 = 0.6 | 38.6 | 37.89 | 36.94 | 35.83 | 34.86
x1 = 0.7 | 38.04 | 37.01 | 36.39 | 35.35 | 34.72
x1 = 0.8 | 37.71 | 36.63 | 35.9 | 35.08 | 34.35
x1 = 0.9 | 37.09 | 36.17 | 35.63 | 34.72 | 34
x1 = 1 | 36.48 | 35.65 | 35 | 34.35 | 33.61

O [water] + CN1CCCC1=O
x2 = 0
Conditions | surface tension liquid-gas [mN/m]
293.15 K | 72.65
298.15 K | 72.05
303.15 K | 71.21
313.15 K | 69.52
323.15 K | 67.92

O=C1CCCN1 [2-pyrrolidinone] + O
surface tension liquid-gas [mN/m]
Conditions | 293.15 K | 298.15 K | 303.15 K | 313.15 K | 323.15 K
x1 = 0.0002 | 60.4 | 58.9 | 57.3 | 55.4 | 53.2
x1 = 0.0006 | 55.69 | 54.6 | 53.93 | 52.2 | 51.05
x1 = 0.01 | 52.9 | 51.68 | 50.8 | 49.8 | 49.1
x1 = 0.015 | 52.4 | 51.19 | 50.23 | 49.3 | 48.7
x1 = 0.05 | 50.72 | 49.58 | 48.68 | 47.77 | 46.34
x1 = 0.07 | 50.26 | 49.28 | 48.45 | 47 | 45.89
x1 = 0.1 | 49.96 | 48.91 | 48 | 46.49 | 45.58
x1 = 0.2 | 48.91 | 48.08 | 47.09 | 45.89 | 45.13
x1 = 0.3 | 47.93 | 47.17 | 46.42 | 45.43 | 44.6
x1 = 0.4 | 47.54 | 46.87 | 46.19 | 45.28 | 44.53
x1 = 0.5 | 47.17 | 46.72 | 46.02 | 45.21 | 44.45
x1 = 0.6 | 47.1 | 46.64 | 45.81 | 44.91 | 44.15
x1 = 0.7 | 47.1 | 46.42 | 45.66 | 45 | 44.23
x1 = 0.8 | 46.94 | 46.42 | 45.66 | 44.68 | 43.85
x1 = 0.9 | 46.64 | 46.11 | 45.51 | 44.53 | 43.77
x1 = 1 | 46.31 | 45.81 | 45.22 | 44.12 | 43.19
